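Cultured in 96-well plates, cells were exposed to test compound for 48 hours across five concentrations. GI50 = concentration required for 50% inhibition of growth. Definition used: TGI = concentration required for complete inhibition of growth.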
Columns and labels:
Assay in all cases: NCI tumour cell line growth inhibition, 48 h
SK-MEL-28 melanoma = system: SK-MEL-28 melanoma
UACC-62 melanoma = system: UACC-62 melanoma
PC-3 prostate = system: PC-3 prostate
SF-539 CNS = system: SF-539 CNS
SN12C renal = system: SN12C renal
CAKI-1 renal = system: CAKI-1 renal
CCRF-CEM leukemia = system: CCRF-CEM leukemia
MDA-MB-435 = system: MDA-MB-435
SF-295 CNS = system: SF-295 CNS
BT-549 breast = system: BT-549 breast
K-562 leukemia = system: K-562 leukemia
SF-268 CNS = system: SF-268 CNS
COLO 205 colon = system: COLO 205 colon
MCF7 breast = system: MCF7 breast
HT29 colon = system: HT29 colon
NCI-H460 lung = system: NCI-H460 lung
TK-10 renal = system: TK-10 renal
UO-31 renal = system: UO-31 renal
A549 NSCLC = system: A549 NSCLC
SR leukemia = system: SR leukemia
U251 CNS = system: U251 CNS
EKVX NSCLC = system: EKVX NSCLC
NCI-H522 lung = system: NCI-H522 lung
HL-60(TB) leukemia = system: HL-60(TB) leukemia
MDA-MB-231 breast = system: MDA-MB-231 breast
RXF 393 renal = system: RXF 393 renal
IGROV1 ovarian = system: IGROV1 ovarian
MALME-3M melanoma = system: MALME-3M melanoma
UACC-257 melanoma = system: UACC-257 melanoma
HOP-62 NSCLC = system: HOP-62 NSCLC
SNB-75 CNS = system: SNB-75 CNS
M14 melanoma = system: M14 melanoma
HS 578T breast = system: HS 578T breast
ACHN renal = system: ACHN renal
OVCAR-8 ovarian = system: OVCAR-8 ovarian
NCI-H226 lung = system: NCI-H226 lung
OVCAR-4 ovarian = system: OVCAR-4 ovarian
OVCAR-5 ovarian = system: OVCAR-5 ovarian
NCI-H23 lung = system: NCI-H23 lung
MOLT-4 leukemia = system: MOLT-4 leukemia
786-0 renal = system: 786-0 renal
SNB-19 CNS = system: SNB-19 CNS
SK-OV-3 ovarian = system: SK-OV-3 ovarian
RPMI-8226 leukemia = system: RPMI-8226 leukemia
SK-MEL-5 melanoma = system: SK-MEL-5 melanoma
KM12 colon = system: KM12 colon
LOX IMVI melanoma = system: LOX IMVI melanoma
DU-145 prostate = system: DU-145 prostate
NCI/ADR-RES ovarian = system: NCI/ADR-RES ovarian
T-47D breast = system: T-47D breast
HCT-15 colon = system: HCT-15 colon
A498 renal = system: A498 renal
HOP-92 NSCLC = system: HOP-92 NSCLC
SK-MEL-2 melanoma = system: SK-MEL-2 melanoma
HCT-116 colon = system: HCT-116 colon
SW-620 colon = system: SW-620 colon
OVCAR-3 ovarian = system: OVCAR-3 ovarian
HCC-2998 colon = system: HCC-2998 colon

SMILES: COc1ccc(OC(=O)O[C@H]2[C@H](O[C@H]3[C@@H](O)COC(O[C@H]4C[C@H]5[C@@H]6CC=C7C[C@@H](O)CC[C@]7(C)[C@H]6CC[C@]5(C)[C@H]4[C@H](C)C(=O)CCC(C)C)[C@@H]3OC(C)=O)OC[C@@H](O)[C@@H]2O)cc1 (some centres undefined)
- GI50 (SK-MEL-28 melanoma): 18.5 nM
- TGI (SK-MEL-28 melanoma): 155 nM
- GI50 (UACC-62 melanoma): 17.1 nM
- TGI (UACC-62 melanoma): 51.6 nM
- GI50 (PC-3 prostate): 10.3 nM
- TGI (PC-3 prostate): 10100 nM
- GI50 (SF-539 CNS): < 10 nM
- TGI (SF-539 CNS): 76.4 nM
- GI50 (SN12C renal): 11200 nM
- TGI (SN12C renal): 23800 nM
- GI50 (CAKI-1 renal): 28.1 nM
- TGI (CAKI-1 renal): 1630 nM
- GI50 (CCRF-CEM leukemia): < 10 nM
- TGI (CCRF-CEM leukemia): 145 nM
- GI50 (MDA-MB-435): 69.5 nM
- TGI (MDA-MB-435): 759 nM
- GI50 (SF-295 CNS): < 10 nM
- TGI (SF-295 CNS): 19.3 nM
- GI50 (BT-549 breast): 18.5 nM
- TGI (BT-549 breast): 15200 nM
- GI50 (K-562 leukemia): < 10 nM
- TGI (K-562 leukemia): 10600 nM
- GI50 (SF-268 CNS): 42 nM
- TGI (SF-268 CNS): 6990 nM
- GI50 (COLO 205 colon): 164 nM
- TGI (COLO 205 colon): 1160 nM
- GI50 (MCF7 breast): 78.2 nM
- TGI (MCF7 breast): 12800 nM
- GI50 (HT29 colon): 541 nM
- TGI (HT29 colon): 18100 nM
- GI50 (NCI-H460 lung): 52.4 nM
- TGI (NCI-H460 lung): 3330 nM
- GI50 (TK-10 renal): 2240 nM
- TGI (TK-10 renal): 21100 nM
- GI50 (UO-31 renal): 87.4 nM
- TGI (UO-31 renal): 995 nM
- GI50 (A549 NSCLC): 145 nM
- TGI (A549 NSCLC): 21900 nM
- GI50 (SR leukemia): 10.2 nM
- TGI (SR leukemia): 21400 nM
- GI50 (U251 CNS): 12.1 nM
- TGI (U251 CNS): 16200 nM
- GI50 (EKVX NSCLC): 1640 nM
- TGI (EKVX NSCLC): 19600 nM
- GI50 (NCI-H522 lung): 165 nM
- TGI (NCI-H522 lung): 2100 nM
- GI50 (HL-60(TB) leukemia): 68.6 nM
- TGI (HL-60(TB) leukemia): 18700 nM
- GI50 (MDA-MB-231 breast): 961 nM
- TGI (MDA-MB-231 breast): 18100 nM
- GI50 (RXF 393 renal): < 10 nM
- GI50 (IGROV1 ovarian): 335 nM
- TGI (IGROV1 ovarian): 18200 nM
- GI50 (MALME-3M melanoma): 122 nM
- TGI (MALME-3M melanoma): 3840 nM
- GI50 (UACC-257 melanoma): 172 nM
- TGI (UACC-257 melanoma): 520 nM
- GI50 (HOP-62 NSCLC): 56.9 nM
- TGI (HOP-62 NSCLC): 11400 nM
- GI50 (SNB-75 CNS): < 10 nM
- TGI (SNB-75 CNS): 10900 nM
- GI50 (M14 melanoma): 40 nM
- TGI (M14 melanoma): 262 nM
- GI50 (HS 578T breast): < 10 nM
- TGI (HS 578T breast): 185 nM
- GI50 (ACHN renal): 496 nM
- TGI (ACHN renal): 18000 nM
- GI50 (OVCAR-8 ovarian): 12700 nM
- TGI (OVCAR-8 ovarian): 50600 nM
- GI50 (NCI-H226 lung): 580 nM
- TGI (NCI-H226 lung): 18700 nM
- GI50 (OVCAR-4 ovarian): 1120 nM
- TGI (OVCAR-4 ovarian): 20300 nM
- GI50 (OVCAR-5 ovarian): 890 nM
- TGI (OVCAR-5 ovarian): 15900 nM
- GI50 (NCI-H23 lung): 966 nM
- TGI (NCI-H23 lung): 19100 nM
- GI50 (MOLT-4 leukemia): 15.3 nM
- GI50 (786-0 renal): < 10 nM
- TGI (786-0 renal): 3810 nM
- GI50 (SNB-19 CNS): 85.7 nM
- TGI (SNB-19 CNS): 6560 nM
- GI50 (SK-OV-3 ovarian): 329 nM
- TGI (SK-OV-3 ovarian): 15300 nM
- GI50 (RPMI-8226 leukemia): < 10 nM
- TGI (RPMI-8226 leukemia): 32.1 nM
- GI50 (SK-MEL-5 melanoma): 34.7 nM
- TGI (SK-MEL-5 melanoma): 176 nM
- GI50 (KM12 colon): 682 nM
- TGI (KM12 colon): 19700 nM
- GI50 (LOX IMVI melanoma): 26.5 nM
- TGI (LOX IMVI melanoma): 177 nM
- GI50 (DU-145 prostate): 3530 nM
- TGI (DU-145 prostate): 22700 nM
- GI50 (NCI/ADR-RES ovarian): 13000 nM
- TGI (NCI/ADR-RES ovarian): > 100000 nM
- GI50 (T-47D breast): 50.5 nM
- TGI (T-47D breast): 19800 nM
- GI50 (HCT-15 colon): 1290 nM
- TGI (HCT-15 colon): 11400 nM
- GI50 (A498 renal): 11.6 nM
- TGI (A498 renal): 55.9 nM
- GI50 (HOP-92 NSCLC): 13 nM
- TGI (HOP-92 NSCLC): 2720 nM
- GI50 (SK-MEL-2 melanoma): 19.9 nM
- TGI (SK-MEL-2 melanoma): 645 nM
- GI50 (HCT-116 colon): 62.1 nM
- TGI (HCT-116 colon): 14100 nM
- GI50 (SW-620 colon): 29.5 nM
- TGI (SW-620 colon): 1130 nM
- GI50 (OVCAR-3 ovarian): 10700 nM
- TGI (OVCAR-3 ovarian): 24500 nM
- GI50 (HCC-2998 colon): 4910 nM
- TGI (HCC-2998 colon): 21400 nM
